Where two headings read alike, the source gives them in different places.
Legend:
AMPKa [pT172] = assay: AMPKa activation [pT172] in MCF7 cell; format: cell-based
HCT116 cells = assay: Inhibitory effect against cancer cell proliferation (MTT); format: cell-based, human; conditions: read-out: IC50 (uM) @ HCT116
Experimental: The formazane crystals thus formed were dissolved using dimethyl sulfoxide (DMSO) and absorbance of the solution was measured at 560 nm. After culturing for 48 hours, […] synthesized in Examples was indicated as cell viability (%) according to each treated concentration.

[1] = Homo sapiens, HCT-116, HCT116, MTT, 48 hours

Row | IC50 (HCT116 cells; [1]) | Compound | AMPKa activation [pT172] (Unit/ml) @ MCF7 cell (AMPKa [pT172]; 5 uM) | AMPKa activation [pT172] (Unit/ml) @ MCF7 cell (AMPKa [pT172]; 10 uM) | AMPKa activation [pT172] (Unit/ml) @ MCF7 cell (AMPKa [pT172]; 50 uM) | IC50 (HCT116 cells; HCT116, MTT, 48 hours) | IC50 (HCT116 cells; Homo sapiens, HCT-116, 48 h)
1 | 6.8 µM | CC1CCN(C(=N)NC(=N)Nc2ccc(OC(F)(F)F)cc2)CC1.Cl [Example 52, N1-(4-methyl)piperidin-N5-(4-trifluoromethoxy)phenyl Biguanide Hydrochloride] | 9.4 Unit/ml | 15.0 Unit/ml | cell death | – | –
2 | 6.6 µM | CC1CCCN(C(=N)NC(=N)Nc2cccc(C(F)(F)F)c2)C1.Cl (centres unmarked) [Example 51, N1-(3-methyl)piperidin-N5-(3-trifluoromethyl)phenyl Biguanide Hydrochloride] | 12.5 Unit/ml | 15.2 Unit/ml | cell death | – | –
3 | 124 µM | Cl.N=C(N)NC(=N)NCCc1ccc2c(c1)OCO2 [Example 143, N1-2-(benzo[d][1,3]dioxol-5-yl)ethyl Biguanide Hydrochloride] | 5.5 Unit/ml | 5.7 Unit/ml | 7.2 Unit/ml | – | –
4 | > 100 µM | CC1CC(=O)N=C(NC(=N)N2CCCCC2)N1.Cl (centres unmarked) [Example 154, N-(6-methyl-4-oxo-1,4,5-tetrahydropyrimidin-2-yl)piperidin-1-carboximidamide Hydrochloride] | 2.9 Unit/ml | 2.9 Unit/ml | 2.8 Unit/ml | – | –
5 | > 100 µM | Cl.N=C(NC(=N)N1CC=CC1)Nc1cccnc1 [Example 66, N1-2,5-dihydro-1H-pyrrol-N5-pyridin-3-yl Biguanide Hydrochloride] | 3.3 Unit/ml | 3.7 Unit/ml | 4.1 Unit/ml | – | –
6 | > 100 µM | Cl.N=C(NCc1ccccc1Cl)NC(=N)N1CCCCC1 [Example 12, N1-piperidin-N5-(2-chloro)benzyl Biguanide Hydrochloride] | – | – | 3.1 Unit/ml | – | –
7 | > 100 µM | CCCN(CC)C(=N)NC(=N)N(CCC)CCC.Cl [Example 7, N1,N1-dipropyl-N5-propyl-N5-ethyl Biguanide Hydrochloride] | 16.2 Unit/ml | 22.3 Unit/ml | 34.6 Unit/ml | – | –
8 | > 100 µM | CCCc1ccccc1NC(=N)NC(=N)N.Cl [Example 121, N1-(2-propyl)phenyl Biguanide Hydrochloride] | – | – | 9.0 Unit/ml | – | –
9 | > 100 µM | CN1CCN(C(=N)NC(=N)Nc2cccc(F)c2)CC1.Cl [Example 28, N1-(4-methyl)piperazin-N5-(3-fluoro)phenyl Biguanide Hydrochloride] | 7.7 Unit/ml | 9.2 Unit/ml | 7.9 Unit/ml | – | –
10 | > 100 µM | CC(C)N(C(=N)NC(=N)N)C(C)C.Cl [Example 115, N1,N1-diisopropyl Biguanide Hydrochloride] | – | – | 4.8 Unit/ml | – | –
11 | 10.4 µM | CC1CCN(C(=N)NC(=N)Nc2ccc(Cl)cc2)CC1.Cl [Example 55, N1-4-methyl)piperidin-N5-(4-chloro)phenyl Biguanide Hydrochloride] | – | – | – | – | –

Second part, the compound before the results:

Row | Compound | IC50 (HCT116 cells; [1]) | AMPKa activation [pT172] (Unit/ml) @ MCF7 cell (AMPKa [pT172]; 5 uM) | AMPKa activation [pT172] (Unit/ml) @ MCF7 cell (AMPKa [pT172]; 10 uM) | AMPKa activation [pT172] (Unit/ml) @ MCF7 cell (AMPKa [pT172]; 50 uM) | IC50 (HCT116 cells; HCT116, MTT, 48 hours) | IC50 (HCT116 cells; Homo sapiens, HCT-116, 48 h)
12 | CC1CC(C)CN(C(=N)NC(=N)Nc2ccc(F)c(C(F)(F)F)c2)C1.Cl (centres unmarked) [Example 65, N1-(3,5-dimethyl)piperidin-N5-(3-trifluoromethyl-4-fluoro)phenyl Biguanide Hydrochloride] | 2.5 µM | 15.0 Unit/ml | 20.1 Unit/ml | cell death | – | –
13 | CN1CCN(C(=N)NC(=N)Nc2ccccc2Cl)CC1.Cl [Example 30, N1-(4-methyl)piperazin-N5-(2-chloro)phenyl Biguanide Hydrochloride] | > 100 µM | 4.2 Unit/ml | 4.0 Unit/ml | 4.2 Unit/ml | – | –
14 | Cl.N=C(NC(=N)N1CCCC1)Nc1ccc(SC(F)(F)F)cc1 [Example 79, N1-pyrrolidin-N5-(4-trifluoromethylthio)phenyl Biguanide Hydrochloride] | 7.9 µM | 7.8 Unit/ml | 11.7 Unit/ml | cell death | – | –
15 | CCOC1CCN(C(=N)NC(=N)Nc2ccc(OC(F)(F)F)cc2)CC1.Cl [Example 26, N1-(4-ethoxy)piperidin-N5-(4-trifluoromethoxy)phenyl Biguanide Hydrochloride] | 9.7 µM | 3.6 Unit/ml | 6.6 Unit/ml | cell death | – | –
16 | CC1CC(C)CN(C(=N)NC(=N)Nc2ccc(F)cc2)C1.Cl (centres unmarked) [Example 64, N1-(3,5-dimethyl)piperidin-N5=(4-fluoro)phenyl Biguanide Hydrochloride] | 36.1 µM | 2.2 Unit/ml | 4.4 Unit/ml | 31.4 Unit/ml | – | –
17 | CN1CCN(C(=N)NC(=N)Nc2cccc(OC(F)(F)F)c2)CC1.Cl [Example 22, N1-(4-methyl)piperazin-N5-(3-trifluoromethoxy)phenyl Biguanide Hydrochloride] | 35.2 µM | 3.8 Unit/ml | 10.1 Unit/ml | 22.3 Unit/ml | – | –
18 | Cl.N=C(NC(=N)N1CCCC1)Nc1cccc(Cl)c1Cl [Example 78, N1-pyrrolidin-N5-(2,3-dichloro)phenyl Biguanide Hydrochloride] | 58.3 µM | 3.4 Unit/ml | 3.4 Unit/ml | 3.8 Unit/ml | – | –
19 | Cl.N=C(N)NC(=N)NCc1ccccc1 [Example 124, N1-benzyl Biguanide Hydrochloride] | 56.7 µM | – | – | 8.4 Unit/ml | – | –
20 | Cl.N=C(N)NC(=N)N1CCCCC1 [Example 123, N1-piperidine Biguanide Hydrochloride] | > 100 µM | 6.6 Unit/ml | 7.5 Unit/ml | 12.6 Unit/ml | – | –
21 | CC1CC(C)CN(C(=N)NC(=N)Nc2ccc(OC(F)(F)F)cc2)C1.Cl (centres unmarked) [Example 62, N1-(3,5-dimethyl)piperidin-N5-(4-trifluoromethoxy)phenyl Biguanide Hydrochloride] | 2.8 µM | 8.5 Unit/ml | 26.6 Unit/ml | cell death | – | –
22 | Cl.N=C(NC(N)=NCCc1cccs1)N1CCCCC1 [Example 99, N1-piperidin-N2-(2-thiophen-2-yl)ethyl Biguanide Hydrochloride] | – | 4.0 Unit/ml | 2.9 Unit/ml | 3.6 Unit/ml | > 100 µM | –
23 | Cl.N=C(N)NC(=N)Nc1ccccc1C(F)(F)F [Example 119, N1-(2-trifluoromethyl)phenyl Biguanide Hydrochloride] | 3.5 µM | 6.9 Unit/ml | 8.8 Unit/ml | 8.5 Unit/ml | – | –
24 | CN1CCN(C(=N)NC(=N)NCc2ccc(Cl)cc2)CC1.Cl [Example 31, N1-(4-methyl)piperazin-N5-(4-chloro)benzyl Biguanide Hydrochloride] | > 100 µM | 2.5 Unit/ml | 3.6 Unit/ml | 6.1 Unit/ml | – | –
25 | CN1CCN(C(=N)NC(=N)Nc2ccc(Cl)c(Cl)c2)CC1.Cl [Example 37, N1-(4-methyl)piperazin-N5-(3,4-dichloro)phenyl Biguanide Hydrochloride] | 32.8 µM | 5.8 Unit/ml | 7.5 Unit/ml | 15.0 Unit/ml | – | –
26 | N1-(3,5-dimethyl)piperidin-N5-(4-trifluoromethyl)phenyl Biguanide Hydrochloride [Example 63] | – | 15.1 Unit/ml | 22.9 Unit/ml | cell death | 2.8 µM | –
27 | COC1CCN(C(=N)NC(=N)N2CCCC(C)C2)CC1.Cl (centres unmarked) [Example 45, N1-(3-methyl)piperidin-N5-(4-methoxy)piperidine Biguanide Hydrochloride] | > 100 µM | 3.0 Unit/ml | 4.0 Unit/ml | 3.5 Unit/ml | – | –
28 | CC1CCN(C(=N)NC(=N)Nc2ccc(C(F)(F)F)c(F)c2)CC1.Cl [Example 57, N1-(4-methyl)piperidin-N5-(3-fluoro-4-trifluoromethyl)phenyl Biguanide Hydrochloride] | 2.5 µM | 6.7 Unit/ml | 12.1 Unit/ml | cell death | – | –
29 | Cl.N=C(N)NC(=N)Nc1ccc(Cl)cc1 [Example 110, N1-(4-chloro)phenyl Biguanide Hydrochloride] | – | – | – | 3.9 Unit/ml | – | 97.2 µM
30 | Cl.N=C(NC(=N)N1CCCC1)Nc1ccc(Br)cc1 [Example 72, N1-pyrrolidin-N5-4-bromo)phenyl Biguanide Hydrochloride] | 37.7 µM | – | – | – | – | –
